This note sets out measurements from patent US6215002A, “Pyrrolopyrrolone derivatives as inhibitors of neutrophil elastase” (priority 1996, dated 2001).

SMILES strings stand for the structures. Where a name gives a salt, the structure may show the parent alone.

The target of the experiment is T1, human neutrophil elastase (Homo sapiens, UniProt P08246).
T1 sequence (P08246 30-267): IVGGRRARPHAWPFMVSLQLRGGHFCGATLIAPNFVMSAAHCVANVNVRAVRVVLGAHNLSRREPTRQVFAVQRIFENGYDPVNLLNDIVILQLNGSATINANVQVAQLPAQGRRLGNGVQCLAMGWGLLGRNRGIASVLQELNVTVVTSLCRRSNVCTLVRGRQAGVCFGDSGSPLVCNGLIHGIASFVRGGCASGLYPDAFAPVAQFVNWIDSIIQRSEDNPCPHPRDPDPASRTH
Nature of the experiment: In vitro assay of human neutrophil elastase (HNE). Particulars: 118 nM purified human neutrophil elastase, pH 8.6, 15 min incubation at 30° C., MeO-succinyl-alanyl-alanyl-prolyl-valyl-p-nitroanilide substrate; read-out: HNE IC50. The format is biochemical. The procedure, abridged:
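Residual activity was taken as the 10 min rate of absorbance rise at 405 nm after adding 0.6 mM MeO-succinyl-AAPV-p-nitroanilide. Curve fitting of activity against concentration gave IC50.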
As a reminder, the IC50 is the concentration needed to halve the response being measured. For `CCC[C@H]1C(=O)N(S(C)(=O)=O)[C@H]2CCN(S(=O)(=O)c3ccc([N+](=O)[O-])cc3)[C@H]12` (relative stereo) [Example 211, rel-(3R,3aR,6aS)-1-Methanesulfonyl-4-(4-nitro-benzenesulfonyl)-3-propyl-hexahydro-pyrrolo[3,2-b]pyrrol-2-one], the IC50 is 0.14 µM. To `CCC[C@H]1C(=O)N(S(C)(=O)=O)[C@H]2CCN(S(=O)(=O)c3ccc(N4CCCC4=O)cc3)[C@H]12` (relative stereo) [Example 212, rel-(3R,3aR,6aS)-1-Methanesulfonyl-4-[4-(2-oxo-pyrrolidin-1yl)-benzenesufonyl]-3-propyl-hexahydro-pyrrolo[3,2-b]pyrrol-2-one] belongs 0.03 µM; to `CCC[C@H]1C(=O)N(S(C)(=O)=O)[C@H]2CCN(S(=O)(=O)c3ccc(NC(C)=O)c(Cl)c3)[C@H]12` (relative stereo) [Example 213, rel-N-[2-Chloro-4-(4-methanesulfonyl-5-oxo-6R-propyl-hexahydro-(3aS,6aR)-pyrrolo[3,2-b]pyrrole-1-sulfonyl)-phenyl]-acetamide], 0.04 µM; to `CCCCOc1ccc(S(=O)(=O)N2CC[C@H]3[C@H]2[C@@H](CCC)C(=O)N3S(C)(=O)=O)cc1` (relative stereo) [Example 214, rel-(3R,3aR,6aS)-4-(4-Butoxy-benzenesulfonyl)-1-methanesulfonyl-3-propyl-hexahydro-pyrrolo[3,2-b]pyrrol-2-one], 0.464 µM. To `CCC[C@H]1C(=O)N(S(C)(=O)=O)[C@H]2CCN(S(=O)(=O)c3ccc(Cl)cc3)[C@H]12` (relative stereo) [Example 215, rel-(3R,3aR,6aS)-4-(4-Chloro-benzenesulfonyl)-1-methanesulfonyl-3-propyl-hexahydro-pyrrolo[3,2-b]pyrrol-2-one] belongs 0.028 µM; to `CCC[C@H]1C(=O)N(S(C)(=O)=O)[C@H]2CCN(S(=O)(=O)c3ccc(C(F)(F)F)cc3)[C@H]12` (relative stereo) [Example 216, rel-(3R,3aR,6aS)-1-Methanesulfonyl-3-propyl-4-(4-trifluoromethyl-benzenesulfonyl)-hexahydro-pyrrolo[3,2-b]pyrrol-2-one], 0.087 µM. For `CCC[C@H]1C(=O)N(S(C)(=O)=O)[C@H]2CCN(S(=O)(=O)c3ccc(S(C)(=O)=O)cc3)[C@H]12` (relative stereo) [Example 217, rel-(3R,3aR,6aS)-1-Methanesulfonyl-4-(4-methanesulfonyl-benzenesulfonyl)-3-propyl-hexahydro-pyrrolo[3,2-b]pyrrol-2-one], the IC50 was 0.04 µM. `CCC[C@H]1C(=O)N(S(C)(=O)=O)[C@H]2CCN(S(=O)(=O)c3ccc(C#N)cc3)[C@H]12` (relative stereo) [Example 218, rel-4-(4-Methanesulfonyl-5-oxo-6R-propyl-hexahydro-(3aS,6aR)-pyrrolo[3,2-b]pyrrole-1-sulfonyl)-benzonitrile]: the IC50 is 0.026 µM. To `CCC[C@H]1C(=O)N(S(C)(=O)=O)[C@H]2CCN(S(=O)(=O)c3ccccc3)[C@H]12` (relative stereo) [Example 219, rel-(3R,3aR,6aS)-4-Benzenesulfonyl-1-methanesulfonyl-3-propyl-hexahydro-pyrrolo[3,2-]pyrrol-2-one] belongs 0.01 µM. To `CCC[C@H]1C(=O)N(S(C)(=O)=O)[C@H]2CCN(S(=O)(=O)c3ccc(OC)cc3)[C@H]12` (relative stereo) [Example 220, rel-(3R,3aR,6aS)-1-Methanesulfonyl-4-(4-methoxy-benzenesulfonyl)-3-propyl hexahydro-pyrrolo[3,2-b]pyrrol-2-one] belongs 0.012 µM; to `CCC[C@H]1C(=O)N(S(C)(=O)=O)[C@H]2CCN(S(=O)(=O)c3ccc(N(C)C)cc3)[C@H]12` (relative stereo) [Example 221, rel-(3R, 3aR,6aS)-4-[4-Dimethylamino-benzenesufonyl)-1-methanesulfonyl-3-propyl-hexahydro-pyrrolo[3,2-b]pyrrol-2-one], 0.027 µM; to `CCC[C@H]1C(=O)N(S(C)(=O)=O)[C@H]2CCN(S(=O)(=O)c3cccc([N+](=O)[O-])c3)[C@H]12` (relative stereo) [Example 222, rel-(3R,3aR,6aS)-1-Methanesulfonyl-4-(3-nitro-benzenesulfonyl)-3-propyl-hexahydro-pyrrolo[3,2-b]pyrrol-2-one], 0.107 µM.

For the molecule `CCC[C@H]1C(=O)N(S(C)(=O)=O)[C@H]2CCN(S(=O)(=O)c3cccc(C(F)(F)F)c3)[C@H]12` (relative stereo) [Example 223, rel-(3R,3aR,6aS)-1-Methanesulfonyl-3-propyl-4-(3-trifluoromethyl-benzenesulfonyl)-hexahydro-pyrrolo[3,2-b]pyrrol-2-one], the IC50 came out at 0.062 µM. In the case of `CCC[C@H]1C(=O)N(S(C)(=O)=O)[C@H]2CCN(S(=O)(=O)c3cc(C(F)(F)F)cc(C(F)(F)F)c3)[C@H]12` (relative stereo) [Example 224, rel-(3R,3aR,6aS)-4-(3,5-Bis-trifluoromethyl-benzenesulfonyl)-1-methanesulfonyl-3-propyl-hexahydro-pyrrolo[3,2-b]pyrrol-2-one], the IC50 worked out at 0.41 µM.

Regarding `CCC[C@H]1C(=O)N(S(C)(=O)=O)[C@H]2CCN(S(=O)(=O)c3ccccc3C(F)(F)F)[C@H]12` (relative stereo) [Example 225, rel-(3R,3aR,6aS)-1-Methanesulfonyl-3-propyl-4-(2-trifluoromethyl-benzenesulfonyl)-hexahydro-pyrrolo[3,2-b]pyrrol-2-one], the IC50 amounted to 0.12 µM. Consider `CCC[C@H]1C(=O)N(S(C)(=O)=O)[C@H]2CCN(S(=O)(=O)c3ccccc3[N+](=O)[O-])[C@H]12` (relative stereo) [Example 226, rel-(3R,3aR,6aS)-1-Methanesulfonyl-4-(2-nitro-benzenesulfonyl)-3-propyl-hexahydro-pyrrolo[3,2-b]pyrrol-2-one], for which the IC50 stood at 0.087 µM. Turning to `CC(C)[C@H]1C(=O)N(S(C)(=O)=O)[C@H]2CCN(S(=O)(=O)c3ccc(S(C)(=O)=O)cc3)[C@H]12` (relative stereo) [Example 227, rel-(3R,3aR,6aS)-3-Isopropyl-1-methanesulfonyl-4-(4-methanesulfonyl-benzenesulfonyl)-hexahydro-pyrrolo[3,2-b]pyrrol-2-one], the IC50 is 0.118 µM. Then `CC(C)[C@H]1C(=O)N(S(C)(=O)=O)[C@H]2CCN(S(=O)(=O)c3ccc(C(F)(F)F)cc3)[C@H]12` (relative stereo) [Example 228, rel-(3R,3aR,6aS)-3-Isopropyl-1-methanesulfony]4-(4-trifluoromethyl-benzenesulfonyl)-hexahydro-pyrrolo[3,2-b]pyrrol-2-one], with 0.068 µM; and `CC(C)[C@H]1C(=O)N(S(C)(=O)=O)[C@H]2CCN(S(=O)(=O)c3ccc([N+](=O)[O-])cc3)[C@H]12` (relative stereo) [Example 229, rel-(3R,3aR,6aS)-3-Isopropyl-1-methanesulfonyl-4-(4-nitro-benzenesulfonyl)-hexahydro-pyrrolo[3,2-b]pyrrol-2-one], with 0.167 µM; and `CCCCOc1ccc(S(=O)(=O)N2CC[C@H]3[C@H]2[C@@H](C(C)C)C(=O)N3S(C)(=O)=O)cc1` (relative stereo) [Example 230, rel-(3R,3aR,6aS)-4-(4-Butoxy-benzenesulfonyl)-3-isopropyl-1-methanesulfonyl-hexahydro-pyrrolo[3,2-b]pyrrol-2-one], with 0.092 µM. Then `CCC[C@H]1C(=O)N(S(C)(=O)=O)[C@H]2CCN(C(=O)c3ccco3)[C@H]12` (relative stereo) [Example 231, rel-(3R,3aR,6aS)-4-(Furan-2-carbonyl)-1-methanesulfonyl-3-propyl-hexahydro-pyrrolo[3,2-b]pyrrol-2-one], with 0.035 µM; and `CCC[C@H]1C(=O)N(S(C)(=O)=O)[C@H]2CCN(C(=O)c3cccs3)[C@H]12` (relative stereo) [Example 232, rel-(3R,3aR,6aS)-1-Methanesulfonyl-3-propyl-4-(thiophene-2-carbonyl)-hexahydro-pyrrolo[3,2-b]pyrrol-2-one], with 0.078 µM; and `CCC[C@H]1C(=O)N(S(C)(=O)=O)[C@H]2CCN(C(=O)c3ccccc3)[C@H]12` (relative stereo) [Example 233, rel-(3R,3aR,6aS)-4-Benzoyl-1-methanesulfonyl-3-propyl-hexahydro-pyrrolo[3,2-b]pyrrol-2-one], with 0.062 µM. Then `CCC[C@H]1C(=O)N(S(C)(=O)=O)[C@H]2CCN(S(=O)(=O)c3ccc(N)cc3)[C@H]12` (relative stereo) [Example 234, rel-(3R,3aR,6aS)-4-(4-Amino-benzenesulfonyl)-1-methanesulfonyl-3-propyl-hexahydro-pyrrolo[3,2-b]pyrrol-2-one], with 0.011 µM. Turning to `CCC[C@H]1C(=O)N(S(C)(=O)=O)[C@H]2CCN(S(=O)(=O)c3cccc(N)c3)[C@H]12` (relative stereo) [Example 235, rel-(3R,3aR,6aS)-4-(3-Amino-benzenesulfonyl)-1-methanesulfonyl-3-propyl-hexahydro-pyrrolo[3,2-b]pyrrol-2-one hydrochloride], the IC50 was 0.009 µM.

With `CCC[C@H]1C(=O)N(S(C)(=O)=O)[C@H]2CCN(S(=O)(=O)c3ccccc3N)[C@H]12` (relative stereo) [Example 236, rel-(3R,3aR,6aS)-4-(2-Amino-benzenesulfonyl)-1-methanesulfonyl-3-propyl-hexahydro-pyrrolo[3,2-b]pyrrol-2-one], the IC50 was 0.018 µM.
